Where two headings read alike, the source gives them in different places.

The values that follow come from patent US20240124454A1, “TRICYCLIC COMPOUND AND USE THEREOF” (NANJING ZAIMING PHARMACEUTICAL CO., LTD., priority 2020, published 2024).

One test concerns HCT116 WT cells. As to the kind of experiment: Cell proliferation inhibition test (Cell-Titer Glo), HCT116 WT. The test is classed as cell-based, human. As to conditions: Homo sapiens, HCT-116, 144 h, 6 days, read-out: HCT116 WT Antiproliferative activity IC50. The protocol: (§1) Test Example 3. Cell Proliferation Inhibition Test of Human Colon Cancer HCT116 WT Cells and HCT116 MTAP-1-Cells
(§2) The brief introduction of the test principle: After the test MAT2A inhibitor was incubated with cancer cells for a period of time, the effect of the test compound on cell proliferation was measured using a cell proliferation count method based on the ATP content.
(§3) Reference: The experiment referred to the method disclosed in patent WO2018045071.
(§4) Material and cell: HCT116 WT cells and HCT116 MTAP^−/− cells were purchased from KYinno; fetal bovine serum, McCoy's 5a culture medium, and penicillin-streptomycin were purchased from Gibco Company (U.S.), 96-well plates were purchased from Corning Company (U.S.), and the Cell-Titer Glo reagent was purchased from Promega Company (U.S.).
(§5) Cell culture: HCT116 WT cells and HCT116 MTAP^−/− cells were cultured with a McCoy's 5a medium containing 10% fetal bovine serum+1% penicillin-streptomycin at 37° C. with 5% CO2.
(§6) Cells at logarithmic growth phase were available for the experiment.
(§7) Cell proliferation activity test: The Cell-Titer Glo reagent was used to test the compound for inhibitory activity on proliferation of both HCT116 WT and HCT116 MTAP^−/− cell strains. The cells were adjusted to a concentration of 400 cells per well, seeded on a 96-well plate, and incubated overnight at 37° C. with 5% CO2.
(§8) In the experimental group, the test compound was diluted sequentially with DMSO and a culture medium, and transferred to a cell plate at a final concentration of 10 μM, 3-fold dilution. The cells were continuously cultured at 37° C. with 5% CO2 for 6 days. The Cell-Titer Glo reagent was added and the cell activity was measured.
(§9) A negative control group and a positive control group were respectively used as Bottom and Top. The negative control group was not added with cells, only added with the culture medium in the same volume, and other operations were consistent with those of the experimental group. The positive control group was not added with the test compound, only added with DMSO in the same volume, and other operations were consistent with those of the experimental group.
(§10) The % Compound inhibition was calculated and fitted to give the IC50 of the compound.
(§11) % Compound inhibition=1-100%×(Signal−Bottom)/(Top−Bottom).
(§12) Signal referred to the signal value of the experimental group, Bottom referred to the average signal value of the negative control group, and Top referred to the average signal value of the positive control group.
(§13) HCT116 MTAP^−/− cells are cells not expressing MTAP protein obtained by site-directed knockout of wild type HCT116 (HCT116 WT) cells by gene knockout. Synthetic lethality will occur due to MAT2A inhibition and the deletion of MTAP, thereby causing tumor cell death. The activity and selectivity of the MAT2A inhibitor can be evaluated by testing the antiproliferative activity of the MAT2A inhibitor on human colon cancer HCT116 MTAP^−/− cells and human colon cancer HCT116 WT.

In another test the test system is HCT116 MTAP^−/− cells. As to the kind of experiment: Cell proliferation inhibition test (Cell-Titer Glo), HCT116 MTAP−/−. The test is classed as cell-based, human. As to conditions: Homo sapiens, HCT-116, 144 h, 6 days, read-out: HCT116 MTAP−/− Antiproliferative activity IC50. The protocol:
as §1, §2, §3, §4, §5, §6, §7, §8, §9, §10, §11, §12, §13

Another test deals with MAT2A (Homo sapiens (Human), UniProt P31153). As to the kind of experiment: MAT2A biochemical test (inorganic phosphate colorimetric, PiColorLock). The following applies: read-out: MAT2A inhibitory Activity IC50.
MAT2A, sequence (P31153 whole entry): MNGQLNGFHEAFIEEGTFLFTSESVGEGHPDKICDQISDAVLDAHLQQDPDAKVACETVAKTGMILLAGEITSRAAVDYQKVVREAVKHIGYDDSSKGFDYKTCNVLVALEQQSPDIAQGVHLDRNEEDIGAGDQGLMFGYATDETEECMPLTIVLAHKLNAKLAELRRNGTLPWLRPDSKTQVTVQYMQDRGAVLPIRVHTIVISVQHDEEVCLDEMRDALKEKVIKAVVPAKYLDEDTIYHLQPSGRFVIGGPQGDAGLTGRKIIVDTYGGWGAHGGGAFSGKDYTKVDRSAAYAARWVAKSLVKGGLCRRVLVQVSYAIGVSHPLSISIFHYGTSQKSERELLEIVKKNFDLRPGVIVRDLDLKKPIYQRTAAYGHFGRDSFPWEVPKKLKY
From the text: Test Example 1. Biochemical Test
The brief introduction of the test principle: L-methionine and ATP can be converted into SAM, inorganic phosphate, and inorganic diphosphate under the catalysis of MAT2A enzymes. The content of inorganic phosphate in the sample can be quantitatively determined by adding a developer such as ammonium molybdate or the like to the enzymatic reaction mixture, thereby reflecting the enzymatic activity of MAT2A.
as §3
Material: MAT2A screening kits were purchased from BPS bioscience (U.S.); 384-well plates were purchased from Corning Company (U.S.). • 1. MAT2A protein (Pharmaron Beijing Co., Ltd.); • 2. L-methionine (Sigma #M9625-5G) • 3. ATP (Sigma #A7699-1G) • 4. KCl (Sigma #60142-500ML-F) • 5. Tris (Sigma #T2663-1L) • 6. MgCl2 (Sigma #M1028) • 7. EDTA (Invitrogen #AM9260G) • 8. BSA (Sangon Biotech #A500023-0100) • 9. PiColorLock (abcam #ab270004)
Detection method: In the experimental group, the test compound was dissolved in DMSO, diluted to a final concentration of 10 μM using Echo, and diluted 3-fold. 80 nL of the dilution was transferred to a 384-well plate.
The experimental buffer (50 mM Tris, 50 mM KCl, 15 mM MgCl2, 100 μM EDTA, 0.005% BSA) was prepared. The MAT2A protein was diluted with the experimental buffer (at final concentration of […]). 40 μL of 2×MAT2A solution was added to the 384-well plate. The plate was centrifuged at 1000 rpm for 1 min and incubated at room temperature for 120 min.
L-methionine and ATP (the final concentration of L-methionine was […] and the final concentration of ATP was 400 μM) were diluted with the experimental buffer. 40 μL of 2×L-methionine and ATP solution was added to initiate the reaction. The plate was centrifuged at 1000 rpm for 1 min and incubated at room temperature for 90 min.
The PiColorLock™ reaction catalyst was mixed with the PiColorLock™ buffer at a ratio of 1:100 according to the instructions. 20 μL was added to each well, and the plate was shaken for 30 s. 8 μL stabilizing reagent was added, and the plate was shaken for 30 s. The signal values were measured after 30 min of incubation at room temperature.
A negative control group and a positive control group were respectively used as Bottom and Top. The negative control group was not added with MAT2A protein, and other operations were consistent with those of the experimental group. The positive control group was not added with the test compound, only added with DMSO in the same volume, and other operations were consistent with those of the experimental group.
as §10, §11, §12
Under the condition of this experiment, the inhibitory effect of the test compound on MAT2A can be expressed as the IC50 of the inhibition on the phosphate production level during the enzymatic reaction.

Regarding `Cn1cnc2c(=O)n(-c3cccnc3C(F)(F)F)c3nc(C(F)(F)F)ccc3c21` (atropisomer, axis not shown) [Compound 41, 1-methyl-7-(trifluoromethyl)-5-(2-(trifluoromethyl)pyridin-3-yl)-1,5-dihydro-4H-imidazo[4,5-c][1,8]naphthyridin-4-one], the IC50 was 7860 nM with HCT116 WT cells, 164 nM with HCT116 MTAP^−/− cells, under 100 nM on MAT2A (class symbols) and 56.8 nM at MAT2A (numeric values).
On to `Cn1cnc2c(=O)n(-c3cccnc3C3CC3)c3nc(C(F)(F)F)ccc3c21` (atropisomer, axis not shown) [Compound 42, 5-(2-cyclopropylpyridin-3-yl)-1-methyl-7-(trifluoromethyl)-1,5-dihydro-4H-imidazo[4,5-c][1,8]naphthyridin-4-one], for which the IC50 is 2200 nM in the test with HCT116 WT cells, 244 nM in the test on HCT116 MTAP^−/− cells, under 100 nM at MAT2A (class symbols) and 47 nM on MAT2A (numeric values).
On the same counts, the results for `Cc1ncccc1-n1c(=O)c2ncn(C)c2c2ccc(Cl)cc21` (atropisomer, axis not shown) [Compound 46, 7-chloro-1-methyl-5-(2-methylpyridin-3-yl)-1,5-dihydro-4H-imidazo[4,5-c]quinolin-4-one] are 473 nM, 87 nM, under 100 nM and 48.5 nM.
For `Cn1cnc2c(=O)n(-c3cccnc3C(F)(F)F)c3cc(Cl)ccc3c21` (atropisomer, axis not shown) [Compound 47, 7-chloro-1-methyl-5-(2-(trifluoromethyl)pyridin-3-yl)-1,5-dihydro-4H-imidazo[4,5-c]quinolin-4-one], the IC50 was over 10000 nM with HCT116 WT cells, 232 nM in the test with HCT116 MTAP^−/− cells, under 100 nM on MAT2A (class symbols) and 50.2 nM at MAT2A (numeric values).
Regarding `Cn1cnc2c(=O)n(-c3cccnc3C3CC3)c3cc(Cl)ccc3c21` (atropisomer, axis not shown) [Compound 49, 7-chloro-5-(2-cyclopropylpyridin-3-yl)-1-methyl-1,5-dihydro-4H-imidazo[4,5-c]quinolin-4-one], the IC50 was 1620 nM with HCT116 WT cells, 87.9 nM in the test on HCT116 MTAP^−/− cells, under 100 nM on MAT2A (class symbols) and 28.1 nM on MAT2A (numeric values).
Consider `O=c1c2ncoc2c2ccc(C(F)(F)F)nc2n1-c1cccnc1C1CC1` (atropisomer, axis not shown) [Compound 81, 5-(2-cyclopropylpyridin-3-yl)-7-(trifluoromethyl)oxazolo[4,5-c][1,8]naphthyridin-4(5H)-one], for which the IC50 in the test on HCT116 WT cells was 1940 nM; in the test with HCT116 MTAP^−/− cells it was 186 nM; on MAT2A (class symbols), under 100 nM; at MAT2A (numeric values), 52.3 nM.
For the compound `Cc1c(F)cccc1-n1c(=O)c2ncn(C)c2c2ccc(C(F)(F)F)nc21` (single isomer, unassigned) [Compound 43-P2, 5-(3-fluoro-2-methylphenyl)-1-methyl-7-(trifluoromethyl)-1,5-dihydro-4H-imidazo[4,5-c][1,8]naphthyridin-4-one], the IC50 in the test on HCT116 WT cells was 355 nM; in the test with HCT116 MTAP^−/− cells, 79 nM; on MAT2A (class symbols), under 100 nM; at MAT2A (numeric values), 28.2 nM.
As for `Cc1ncccc1-n1c(=O)c2ncn(C)c2c2ccc(Cl)cc21` (single isomer, unassigned) [Compound 46-P2, 7-chloro-1-methyl-5-(2-methylpyridin-3-yl)-1,5-dihydro-4H-imidazo[4,5-c]quinolin-4-one], the IC50 is 214 nM in the test on HCT116 WT cells, 33 nM in the test with HCT116 MTAP^−/− cells, under 100 nM at MAT2A (class symbols) and 19.8 nM at MAT2A (numeric values).
Consider `Cn1cnc2c(=O)n(-c3cccnc3C(F)(F)F)c3cc(Cl)ccc3c21` (single isomer, unassigned) [Compound 47-P2, 7-chloro-1-methyl-5-(2-(trifluoromethyl)pyridin-3-yl)-1,5-dihydro-4H-imidazo[4,5-c]quinolin-4-one], for which the IC50 was 8330 nM in the test with HCT116 WT cells, 130 nM in the test with HCT116 MTAP^−/− cells, under 100 nM on MAT2A (class symbols) and 23.3 nM at MAT2A (numeric values).
As to `COc1c(F)cccc1-n1c(=O)c2ncn(C)c2c2ccc(C(F)(F)F)nc21` (single isomer, unassigned) [Compound 70-P2, 5-(3-fluoro-2-methoxyphenyl)-1-methyl-7-(trifluoromethyl)-1,5-dihydro-4H-imidazo[4,5-c][1,8]naphthyridin-4-one], the IC50 with HCT116 WT cells is 7940 nM; with HCT116 MTAP^−/− cells it was 490 nM; on MAT2A (class symbols), under 100 nM; on MAT2A (numeric values), 37.9 nM.
Turning to `Cn1cnc2c(=O)n(-c3cnccn3)c3nc(C(F)(F)F)ccc3c21` [Compound 77, 1-methyl-5-(pyrazin-2-yl)-7-(trifluoromethyl)-1,5-dihydro-4H-imidazo[4,5-c][1,8]naphthyridin-4-one], the IC50 on MAT2A (class symbols) is 100 to 500 nM; on MAT2A (numeric values), 337 nM.
On the same counts, the results for `Cn1cnc2c(=O)n(-c3cccc(F)c3F)c3nc(C(F)(F)F)ccc3c21` [Compound 78, 5-(2,3-difluorophenyl)-1-methyl-7-(trifluoromethyl)-1,5-dihydro-4H-imidazo[4,5-c][1,8]naphthyridin-4-one] are under 100 nM and 80.2 nM.
On the same counts, the results for `Cc1ncncc1-n1c(=O)c2ncn(C)c2c2ccc(C(F)(F)F)nc21` [Compound 79, 1-methyl-5-(4-methylpyrimidin-5-yl)-7-(trifluoromethyl)-1,5-dihydro-4H-imidazo[4,5-c][1,8]naphthyridin-4-one] are 100 to 500 nM and 102 nM.
`Cc1ncccc1-n1c(=O)c2ncoc2c2ccc(Cl)cc21` [Compound 83, 7-chloro-5-(2-methylpyridin-3-yl)oxazolo[4,5-c]quinolin-4(5H)-one]: the IC50 at MAT2A (class symbols) was under 100 nM; at MAT2A (numeric values) it was 54.7 nM.
Consider `Cn1cnc2c(=O)n(-c3cccnc3C(F)(F)F)c3cc(C(F)(F)F)ccc3c21` [Compound 84, 1-methyl-7-(trifluoromethyl)-5-(2-trifluoromethylpyridin-3-yl)-1,5-dihydro-4H-imidazo[4,5-c]quinolin-4-one], for which the IC50 was under 100 nM on MAT2A (class symbols) and 53.4 nM at MAT2A (numeric values).
